In brackets after ≈: the same amount, converted by molar mass.
Legend:
Type in all cases: cell-based
E. coli ATCC28922 [1] = experiment: Intrinsic antibacterial activity, standard microdilution (CLSI); conditions: Escherichia coli, ATCC28922, 24 h
[2] = test system: Chinese hamster ovary cells (CHO-K1); experiment: Toxicity on mammalian cells, WST1 assay; conditions: Cricetulus griseus; CHO-K1 cell viability, WST1, 24 h
Protocol: The WST1 assay was used to measure the cytotoxic activity of the polyaminated fatty acid compounds. It is a colorimetric assay that measures viability and cell proliferation rate. It is based on the cleavage of colorless tetrazolium salts WST-1 (4-[3-(4-iodophenyl)-2-(4-nitrophenyl)-2H-5-tetrazolio]-1,3-benzene disulfonate) by mitochondrial dehydrogenases into yellow formazan derivative, quantifiable by spectrophotometry at 420-480 nm.
The WST1 assay was performed on Chinese hamster ovary cells. CHO-K1 cells (ATCC, USA) were maintained in culture in “Mac Coy's 5A” medium supplemented with 10% fetal calf serum, 2 mM L-glutamine and streptomycin penicillin mixture (100 U/ml: 10 μg/ml). Incubation is carried out at 37 °C under CO2 enriched atmosphere (5% by volume) and subcultured every two days.
Cells are transferred to 96-well plates (25,000 cells/ml) in complete “Mac Coy's 5A medium”, and maintained for 24 h at 37 °C under a humid CO2-enriched atmosphere (5% by volume). Increasing concentrations of given polyaminated fatty acid compounds are added to the wells in duplicate assays and 8 growth controls containing cells in medium alone are included in each assay run. After 24 hours at 37 °C (5% CO2), the culture medium is removed, the cells are rinsed in phosphate buffer (PBS) and 50 μL of PBS containing 10% WST1 reagent is added to each well. After 20 minutes of incubation at 37 °C, the results are read by spectrophotometry at 450 nm.
The results are expressed as dose-response relationships, modeled by a non-linear regression analysis using TableCurve software. The 50% Inhibitory Concentration (IC50) represents the concentration of polyaminated fatty acid compound capable of reducing cell viability by 50%.

E. faecalis ATCC29212 = experiment: Intrinsic antibacterial activity, standard microdilution (CLSI); conditions: Enterococcus faecalis; E. faecalis ATCC29212, compound alone, 24 h, 37 °C
Protocol: (§1) The bacterial strains used in the examples below are the reference strains P. aeruginosa ATCC27853, E. coli ATCC25922, K. pneumoniae ATCC51296, S. aureus ATCC25923 and E. faecalis ATCC29212. The bacterial strains were previously stored in 15% (v/v) glycerol at −80 °C for cryoprotection. One colony of the fresh culture of each strain was incubated in a culture tube containing 3 ml of Mueller-Hinton broth (MH2) at 37 °C overnight with agitation. This suspension was used for inoculum preparation.
(§2) The antibacterial activity of said polyaminated fatty acid compounds was measured using a standard microdilution test based on Clinical and Laboratory Standards Institute (CLSI) guidelines. This method was slightly modified by increasing the assay volumes to 200 μl so as to improve reproducibility.
(§3) A negative control which corresponds to 2 ml of sterile culture medium and a positive control which corresponds to a mixture of 1980 μl of culture medium and 20 μl of bacterial suspension from a thawed biological strain (biological strains are stored at −80 °C in glycerol) were prepared.
(§4) The tubes were incubated in an incubator shaker “Infors” at 37 °C for 24 hours at 100 round per minute (rpm).
(§5) The polyaminated fatty acid compounds to be tested were prepared in water at a concentration of 10 mM.
(§6) The required volume of the microbial suspension to be inoculated was calculated for an optical density (OD) measured corresponding to a value equal to 0.01 in each well by using a spectrophotometer at 600 nm. In the microplate, the first row corresponded to the negative control (200 μl of sterile culture medium in each well), the second row to the positive control (seeded culture medium), the third row was loaded twice with bacterial suspension and with 8 μl of a given polyaminated fatty acid compound in each well. Subsequently, a half-fold cascade dilution was performed from this line. The first column was used as an inhibition control. A sterile filter was then placed on the microplate allowing the passage of gases but not contaminants. The microplate was incubated at 37 °C in a humid atmosphere for 24 hours. After 24 hours of incubation, an optical density measurement was performed by taking 100 μl of the bacterial suspension diluted in 900 μl of sterile culture medium.
(§7) The medium used was Mueller-Hinton medium (MH) for bacteria. All tests were performed in duplicate.
(§8) Table 1 below reports the intrinsic antibacterial activity of some polymaminated fatty acids prepared in example 1 (MIC in μM) as well as their toxicity towards eucaryotic cells (IC50 in μM).

S. aureus ATCC25923 = experiment: as above; conditions: Staphylococcus aureus; S. aureus ATCC25923, compound alone, 24 h, 37 °C
Protocol: as §1, §2, §3, §4, §5, §6, §7, §8

P. aeruginosa ATCC27853 [3] = experiment: as above; conditions: Pseudomonas aeruginosa; P. aeruginosa ATCC27853, compound alone, 24 h, 37 °C
Protocol: as §1, §2, §3, §4, §5, §6, §7, §8

P. aeruginosa ATCC27853 [4] = experiment: Antibacterial activity in combination with doxycycline; conditions: Pseudomonas aeruginosa, 24 h
Protocol: (§9) 100 μl of a liquid culture medium is deposited in each well of a 96-well microplate, and then inoculated with the bacterial suspension of example 2.1 prepared for the positive control. The volume needed to inoculate is calculated for an OD of 0.01 which corresponds to approximately 5,106 bacteria in each well. In this plate, the first row corresponds to a negative control (200 μl of sterile culture medium in each well), the second row to a positive control (100 μl of sterile culture medium with 100 μl of the bacterial suspension), the third row contains 192 μl of culture medium and 8 μl of polyaminated fatty acid compound to be tested in each well. Subsequently, a cascade dilution is performed from this line. Next, 3-8 μl of a doxycycline solution (1 mg dissolved in 20 ml) is added to each well of the lines to obtain a final antibiotic concentration of 2 μg/ml. Then, 92 μl of bacterial suspension is added to lines 3 to 8. The MIC with a concentration of doxycycline of 2 μg/ml in the presence of X μg/ml of polyaminated fatty acid compound is determined after 24 hours of incubation at 37 °C in a humid atmosphere.
The table 2 below reports the antibacterial activity (MIC in μM) of a combination of some polyaminated fatty acids prepared in example 1 with two antibacterial drugs doxycycline and erythromycin. […] On the Gram-negative strain of E. coli ([…]), erythromycin has a MIC of 50 μg/ml.

P. aeruginosa PA263 = experiment: Potentiation of known antibiotics (MIC of antibiotic alone or with PAFA); conditions: Pseudomonas aeruginosa, PA263, 24 h, 24 h
Protocol: (§10) 100 μl of a liquid culture medium is deposited in each well of a 96-well microplate, and then inoculated with the bacterial suspension of example 2.1 prepared for the positive control. The volume needed to inoculate is calculated for an OD of 0.01 which corresponds to approximately 5,106 bacteria in each well. In this plate, the first row corresponds to a negative control (200 μl of sterile culture medium in each well), the second row to a positive control (100 μl of sterile culture medium with 100 μl of the bacterial suspension), the third row contains 192 μl of culture medium and 8 μl of an antibiotic solution (10 mg/ml) to be tested in each well. Subsequently, a cascade dilution is performed from this line. Next, 10 μl of a fatty acid solution (10 μM final concentration) is added to each well of the lines. Then, 90 μl of bacterial suspension is added to lines 3 to 8. The MIC of the antibiotic tested is determined after 24 hours of incubation at 37 °C in a humid atmosphere.
(§11) The table 3 below reports the antibacterial activity (MIC in μg/mL) of a combination of some polyaminated fatty acids prepared in example 1 with various antibacterial drugs: doxycycline (DOX), tetracycline (TET), oxytetracycline (OXY) and minocycline (MINO), against various bacterial strains of P. aeruginosa (PA01, PA0509, and PA263), and of E. coli (AG-100 and AG-100A).

P. aeruginosa PA0509 = experiment: as above; conditions: Pseudomonas aeruginosa, PA0509, 24 h
Protocol: as §10, §11

E. coli AG-100A = experiment: as above; conditions: Escherichia coli, AG100A, 24 h
Protocol: as §10, §11

P. aeruginosa PA01 = experiment: as above; conditions: Pseudomonas aeruginosa, PA01, 24 h
Protocol: as §10, §11

E. coli AG-100 = experiment: as above; conditions: Escherichia coli, AG100, 24 h
Protocol: as §10, §11

E. coli ATCC28922 [5] = experiment: Antibacterial activity in combination with erythromycin; conditions: Escherichia coli, ATCC28922, 24 h
Protocol: as §9
The table 2 below reports the antibacterial activity (MIC in μM) of a combination of some polyaminated fatty acids prepared in example 1 with two antibacterial drugs doxycycline and erythromycin. […]

[6] = P. aeruginosa ATCC27853 + Doxycycline (2 μg/ml)

CCCCC/C=C\C/C=C\CCCCCCCC(=O)NCCNCCNCCN [PAFA12]
MIC (E. coli ATCC28922 [1]): 50 µM (≈ 20.4 µg/mL)
IC50 [2]: 166 µM
MIC (E. faecalis ATCC29212): 100 µM (≈ 40.9 µg/mL)
MIC (S. aureus ATCC25923): 200 µM (≈ 81.7 µg/mL)
MIC (P. aeruginosa ATCC27853 [3]): 100 µM (≈ 40.9 µg/mL)
MIC (P. aeruginosa ATCC27853 [4]; [6]): 50 µM

CCCCC/C=C\C/C=C\CCCCCCCC(=O)NCCCN(CCCN)CCCN [PAFA10]
MIC (E. coli ATCC28922 [1]): > 200 µM
IC50 [2]: 79 µM
MIC (E. faecalis ATCC29212): 25 µM (≈ 11.3 µg/mL)
MIC (S. aureus ATCC25923): 25 µM (≈ 11.3 µg/mL)
MIC (P. aeruginosa ATCC27853 [3]): 25 µM (≈ 11.3 µg/mL)
MIC (P. aeruginosa ATCC27853 [4]; [6]): 12.5 µM

C[C@H]1c2cccc(O)c2C(=O)C2=C(O)[C@]3(O)C(=O)C(C(N)=O)=C(O)[C@@H](N(C)C)[C@@H]3[C@@H](O)[C@@H]21 [DOX, doxycycline]
MIC (P. aeruginosa PA263; MIC of antibiotic, PA263, +PAFA10 (10 μM)): 8 µg/mL
MIC (P. aeruginosa PA263; MIC of antibiotic, PA263, +PAFA11 (10 μM)): 4 µg/mL
MIC (P. aeruginosa PA263; MIC of antibiotic, PA263, +PAFA14 (10 μM)): 1 µg/mL
MIC (P. aeruginosa PA263; PA263, Antibiotic alone): 32 µg/mL
MIC (P. aeruginosa PA0509): 1 µg/mL
MIC (P. aeruginosa PA0509; MIC of antibiotic, PA0509, +PAFA10 (10 μM), 24 h): 0.25 µg/mL
MIC (P. aeruginosa PA0509; MIC of antibiotic, PA0509, +PAFA11 (10 μM), 24 h): 0.25 µg/mL
MIC (P. aeruginosa PA0509; MIC of antibiotic, PA0509, +PAFA14 (10 μM), 24 h): 0.125 µg/mL
MIC (E. coli AG-100A; Antibiotic alone): 0.5 µg/mL
MIC (E. coli AG-100A; MIC of antibiotic, +PAFA10 (10 μM)): 0.25 µg/mL
MIC (E. coli AG-100A; MIC of antibiotic, +PAFA11 (10 μM)): 0.25 µg/mL
MIC (E. coli AG-100A; MIC of antibiotic, +PAFA14 (10 μM)): 0.008 µg/mL
MIC (P. aeruginosa PA01; MIC of antibiotic, PA01, +PAFA10 (10 μM)): 2 µg/mL
MIC (P. aeruginosa PA01; MIC of antibiotic, PA01, +PAFA11 (10 μM)): 2 µg/mL
MIC (P. aeruginosa PA01; MIC of antibiotic, PA01, +PAFA14 (10 μM)): 0.125 µg/mL
MIC (P. aeruginosa PA01; PA01, Antibiotic alone): 32 µg/mL
MIC (E. coli AG-100; AG-100, Antibiotic alone): 1 µg/mL
MIC (E. coli AG-100; MIC of antibiotic, AG-100, +PAFA10 (10 μM)): 0.25 µg/mL
MIC (E. coli AG-100; MIC of antibiotic, AG-100, +PAFA11 (10 μM)): 0.25 µg/mL
MIC (E. coli AG-100; MIC of antibiotic, AG-100, +PAFA14 (10 μM)): 0.008 µg/mL
MIC (P. aeruginosa ATCC27853 [4]; antibiotic alone, P. aeruginosa ATCC27853): 32 µg/mL

CC[C@H]1OC(=O)[C@H](C)[C@@H](O[C@H]2C[C@@](C)(OC)[C@@H](O)[C@H](C)O2)[C@H](C)[C@@H](O[C@@H]2O[C@H](C)C[C@H](N(C)C)[C@H]2O)[C@](C)(O)C[C@@H](C)C(=O)[C@H](C)[C@@H](O)[C@]1(C)O [erythromycin]
MIC (E. coli ATCC28922 [5]): 50 µg/mL

CCCCC/C=C\C/C=C\CCCCCCCC(=O)NCCCNCCCN [PAFA11]
MIC (E. coli ATCC28922 [1]): 100 µM (≈ 39.4 µg/mL)
IC50 [2]: 21 µM
MIC (E. faecalis ATCC29212): 12.5 µM (≈ 4.92 µg/mL)
MIC (S. aureus ATCC25923): 12.5 µM (≈ 4.92 µg/mL)
MIC (P. aeruginosa ATCC27853 [3]): 25 µM (≈ 9.84 µg/mL)
MIC (P. aeruginosa ATCC27853 [4]; [6]): 12.5 µM

CCCCC/C=C\C/C=C\CCCCCCCC(=O)NCCCCN [PAFA8]
MIC (E. coli ATCC28922 [1]): > 200 µM
MIC (E. faecalis ATCC29212): > 200 µM
MIC (S. aureus ATCC25923): 200 µM (≈ 70.1 µg/mL)
MIC (P. aeruginosa ATCC27853 [3]): > 200 µM

CCCCC/C=C\C/C=C\CCCCCCCC(=O)NCCCN(C)CCCN [PAFA9]
MIC (E. coli ATCC28922 [1]): 25 µM (≈ 10.2 µg/mL)
IC50 [2]: 84 µM
MIC (E. faecalis ATCC29212): 50 µM (≈ 20.4 µg/mL)
MIC (S. aureus ATCC25923): 50 µM (≈ 20.4 µg/mL)
MIC (P. aeruginosa ATCC27853 [3]): 200 µM (≈ 81.5 µg/mL)
MIC (P. aeruginosa ATCC27853 [4]; [6]): 25 µM

CCCCC/C=C\C/C=C\CCCCCCCC(=O)NCCCNCCCCNCCCN [PAFA14]
MIC (E. coli ATCC28922 [1]): 25 µM (≈ 11.6 µg/mL)
IC50 [2]: 98 µM
MIC (E. faecalis ATCC29212): 12.5 µM (≈ 5.81 µg/mL)
MIC (S. aureus ATCC25923): 12.5 µM (≈ 5.81 µg/mL)
MIC (P. aeruginosa ATCC27853 [3]): 100 µM (≈ 46.5 µg/mL)
MIC (P. aeruginosa ATCC27853 [4]; [6]): 6.25 µM
